Data as given in patent publication EP0831835B1, “TREATING ANOREXIA” (ELI LILLY AND COMPANY, priority 1995, dated 1996).

Assays:
human patients = test: double-blind multicenter clinical trial versus placebo; format: in vivo; conditions: human patients randomized to compound or placebo
human subjects = test: double blind multicenter clinical trial versus haloperidol; format: in vivo; conditions: 1,996 human subjects, 5-20 mg/day, 6 weeks
Source text: Another double blind multicenter clinical trial was completed using 1,996 human subjects. […] The study continued for 6 weeks, with possible extensions.

dogs = test: animal studies in dogs (weight); format: in vivo
rodents = test: animal studies in rodents (food intake / weight); format: in vivo, Male Sprague Dawley CD rats; conditions: many such animals
Protocol: Male Sprague Dawley CD rats (Charles River, Wilmington, Mass.) are individually housed in cages with ad libitum access to Animal Chow and tap water. Temperature is maintained at approximately 21° C. Rats are adapted to vivarium conditions for at least a week before tests begin.
At the start of the experiments, the rats are weighed. […] Tests are conducted every 3-4 days. Food intake (± 0.1 g) is recorded hourly for the 5 h after intubation and after 24 h.

[1] = tested on: muscarinic cholinergic receptor; conditions: results of pharmacological studies
[2] = detection of radiolabelled compound in saliva; format: in vivo
Protocol: For example, in the treatment of adult humans, dosages of from about 0.25 to 50 mg, preferably from 1 to 30 mg, and most preferably 1 to 20 mg per day may be used. A once a day dosage is normally sufficient, although divided doses may be administered. For treatment of cognitive dysfunction, a dose range of from 1 to 30 mg, preferably 1 to 20 mg per day is suitable.

5-HT1C receptor = molecular target: T1, 5-HT1C receptor (Homo sapiens, UniProt P28335); test: pharmacological studies, activity at 5-HT1C receptor
T1 sequence (P28335 33-458): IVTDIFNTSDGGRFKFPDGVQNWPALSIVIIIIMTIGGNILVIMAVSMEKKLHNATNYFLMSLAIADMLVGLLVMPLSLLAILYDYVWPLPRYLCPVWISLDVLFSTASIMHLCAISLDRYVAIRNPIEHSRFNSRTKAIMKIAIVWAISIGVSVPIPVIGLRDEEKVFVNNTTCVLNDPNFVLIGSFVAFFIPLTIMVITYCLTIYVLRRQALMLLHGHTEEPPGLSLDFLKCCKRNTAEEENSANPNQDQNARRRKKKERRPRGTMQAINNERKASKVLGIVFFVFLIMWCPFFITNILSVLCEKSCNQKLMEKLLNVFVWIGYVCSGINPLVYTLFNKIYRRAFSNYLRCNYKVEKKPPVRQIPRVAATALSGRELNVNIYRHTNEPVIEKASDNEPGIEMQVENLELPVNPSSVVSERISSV

Cc1cc2c(s1)Nc1ccccc1N=C2N1CCN(C)CC1 [2-methyl-4-(4-methyl-1-piperazinyl)-10H-thieno[2,3-b][1,5]benzodiazepine]
usefulness for the treatment of anorexia (human patients): can be useful for the treatment of anorexia
appetite (human subjects): increase in appetite
weight gain (human subjects): statistically significant dose dependent weight gain
effectiveness for treatment of clinically significant decrease in appetite (dogs): would not be effective
weight change (dogs; many such animals): lost weight
weight change (rodents): lost weight
muscarinic cholinergic receptor activity [1]: has muscarinic cholinergic receptor activity
detection in saliva [2]: can be detected in the saliva
activity at the 5-HT1C receptor (5-HT1C receptor): active
